Paper PMC3335822 (PLoS ONE, 2012)

Columns and labels:
[1] = target: T1, Eya3(ED) (Mus musculus, UniProt P97480); assay: pNPP hydrolysis by the catalytic domain of Eya3; assay type: biochemical
T1 construct: The catalytic domain (ED) of mouse Eyes Absent 3 (Eya3(223–510)) was purified; made in house
T1 sequence (P97480 223-510): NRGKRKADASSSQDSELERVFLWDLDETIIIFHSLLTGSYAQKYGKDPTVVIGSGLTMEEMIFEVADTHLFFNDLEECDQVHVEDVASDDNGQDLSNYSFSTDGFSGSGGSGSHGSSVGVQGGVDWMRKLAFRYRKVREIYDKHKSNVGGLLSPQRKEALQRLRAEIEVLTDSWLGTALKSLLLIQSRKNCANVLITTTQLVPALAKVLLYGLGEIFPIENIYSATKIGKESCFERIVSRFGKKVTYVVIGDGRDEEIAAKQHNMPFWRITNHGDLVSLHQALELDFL
Source text: The catalytic domain (ED) of mouse Eyes Absent 3 (Eya3(223–510)) was purified as described before. Human Eyes Absent 3 isoform 2 (representing the major species identified in human cell lines by mass spectrometry and residues 127–573 of NM_001990, isoform 1) was sub-cloned into pDEST565 to express a poly-histidine- Glutathione-S-transferase (His-GST) tagged fusion protein with a TVMV protease site. The protein was purified by glutathione-S-transferase affinity chromatography followed by TVMV cleavage, Ni-NTA chromatography, and finally size exclusion chromatography.
(§1) The NCI Diversity Set II was obtained from the NCI in 96-well trays from the NIH Molecular Libraries Program and stored as 10 mM stocks in DMSO. An initial manual screen was conducted using the previously described p-nitrophenylphosphate assay and mouse Eya3(223–510) in a reaction mixture containing 20 mM MES pH 6, 2 mM MgCl2, 125 μM inhibitor, 3.4 mM para-nitrophenol phosphate (pNPP) and 0.01 μg/µL enzyme.
(§2) Compounds were dissolved in DMSO and diluted as needed. […] Reactions were incubated at 30°C for 30 minutes and quenched with 100 mM EDTA pH 10. IC50 values were then calculated directly from regression curves using PRISM. All reported values are the mean of two independent experiments.

[2] = target: T2, PTP1B (Homo sapiens, UniProt P18031); assay: pNPP hydrolysis by PTP1B; assay type: biochemical; details: substrate pNPP
T2 construct: made in house
T2 sequence (P18031 1-435): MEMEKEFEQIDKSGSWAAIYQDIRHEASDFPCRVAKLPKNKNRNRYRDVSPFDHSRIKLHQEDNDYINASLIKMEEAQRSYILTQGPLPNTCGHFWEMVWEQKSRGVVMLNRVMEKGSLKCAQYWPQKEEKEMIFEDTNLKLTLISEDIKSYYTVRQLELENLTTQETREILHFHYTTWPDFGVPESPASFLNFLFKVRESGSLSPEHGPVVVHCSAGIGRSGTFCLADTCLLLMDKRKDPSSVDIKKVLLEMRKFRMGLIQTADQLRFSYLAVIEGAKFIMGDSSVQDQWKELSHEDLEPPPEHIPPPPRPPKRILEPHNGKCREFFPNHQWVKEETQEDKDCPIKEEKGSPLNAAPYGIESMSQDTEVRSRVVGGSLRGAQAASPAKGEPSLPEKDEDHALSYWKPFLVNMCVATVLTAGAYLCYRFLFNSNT
Method: (§3) The catalytic domain of human Eyes Absent 2 was similarly sub-cloned as a poly-histidine fusion construct in the vector pDEST-527. Fusion protein was purified by Ni-NTA chromatography and followed by size-exclusion chromatography over a Superdex-75 column. The relative purity of protein samples was determined using SDS-PAGE. PTP1B was purified as described previously.
as §2

[3] = target: T3, human EYA2(ED) (Homo sapiens, UniProt O00167); assay: pNPP hydrolysis by the catalytic domain of EYA2; assay type: biochemical; details: substrate pNPP
T3 sequence (O00167 267-538 limits assumed): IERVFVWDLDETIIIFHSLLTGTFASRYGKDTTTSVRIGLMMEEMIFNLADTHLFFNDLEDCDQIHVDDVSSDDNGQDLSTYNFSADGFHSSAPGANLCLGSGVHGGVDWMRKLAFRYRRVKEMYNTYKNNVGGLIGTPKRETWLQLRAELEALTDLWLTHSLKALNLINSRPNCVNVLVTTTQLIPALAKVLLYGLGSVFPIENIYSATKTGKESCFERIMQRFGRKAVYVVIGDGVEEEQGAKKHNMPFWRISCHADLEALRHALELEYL
Method: as §3
as §1, with “enzyme. The amount of 4-nitrophenol (pNP) produced was monitored at […] on a BioTek EL808 plate reader. A similar protocol was used to screen for inhibitor activity using hEYA3 and hEYA2(ED).” for “enzyme.”
as §2

[4] = target: T4, EYA3-SIX2 interaction (Homo sapiens, UniProt Q99504); assay: His-SIX2 Ni-NTA pull-down of EYA3; assay type: binding; details: 50 μM, 15 minutes at room temperature
T4 construct: residues 127–573 of NM_001990, isoform 1; His-GST (poly-histidine, glutathione-S-transferase) with TVMV protease site (cleaved yes); made in house
T4 sequence (Q99504 127-573): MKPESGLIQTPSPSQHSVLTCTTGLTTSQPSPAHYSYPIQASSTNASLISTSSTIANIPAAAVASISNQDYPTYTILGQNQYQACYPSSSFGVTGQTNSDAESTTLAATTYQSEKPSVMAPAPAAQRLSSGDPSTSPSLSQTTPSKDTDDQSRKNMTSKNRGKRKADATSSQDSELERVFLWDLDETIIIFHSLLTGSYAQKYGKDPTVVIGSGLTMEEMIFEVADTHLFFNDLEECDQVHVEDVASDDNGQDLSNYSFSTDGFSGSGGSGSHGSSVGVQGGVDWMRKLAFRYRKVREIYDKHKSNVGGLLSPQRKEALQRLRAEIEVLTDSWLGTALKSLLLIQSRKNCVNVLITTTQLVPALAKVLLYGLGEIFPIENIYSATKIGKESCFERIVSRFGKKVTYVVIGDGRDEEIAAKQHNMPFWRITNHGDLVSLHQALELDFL
T4 sequence (Q9NPC8 1-291 partner): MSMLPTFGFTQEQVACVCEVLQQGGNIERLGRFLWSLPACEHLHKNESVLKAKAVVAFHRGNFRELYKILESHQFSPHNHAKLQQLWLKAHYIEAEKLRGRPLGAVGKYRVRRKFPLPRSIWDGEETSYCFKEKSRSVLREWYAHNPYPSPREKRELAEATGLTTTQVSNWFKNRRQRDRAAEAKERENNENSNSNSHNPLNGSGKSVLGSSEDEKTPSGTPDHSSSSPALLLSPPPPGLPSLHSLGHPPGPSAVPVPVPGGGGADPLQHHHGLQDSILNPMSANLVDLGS
Source text: The catalytic domain of the EYAs also mediates its interaction with the SIX proteins. This complex then translocates to the nucleus where the SIX-EYA complex can activate transcription.

mode of inhibition of Eya3(ED) ([1]; pNPP substrate titration) | IC50 [3] [µM] | Structure (SMILES) | IC50 [2] [µM] | effect on the interaction between EYA3 and SIX2 [4] | IC50 ([1]; substrate pNPP 3.4 mM, pH 6, 30°C, 30 minutes) [µM]
uncompetitive inhibitor | 10.3 | CCc1oc2ccccc2c1C(=O)c1cc(Br)c(O)c(Br)c1 [Compound 1, Benzbromarone] | 53.8 | does not affect the interaction between EYA3 and SIX2 | –
– | – | CCc1oc2ccccc2c1C(=O)c1ccc(O)cc1 [Compound 1a, Benzarone] | > 150 | – | 19.2
